Experimental data taken from patent publication EP1463487B1, “LIPOSOMAL DELIVERY OF VITAMIN E BASED COMPOUNDS” (RESEARCH DEVELOPMENT FOUNDATION, priority 2001, dated 2003).
Read-outs that look alike come from different tables or passages of the source. Marks after values point to notes of the source that are not given here.

Key:
66 cl.4-GFP cells [1] = assay: Visible lung metastases of 66 cl.4-GFP tumors in Balb/c mice; assay type: in vivo; parameters: Inhibition (%) of visible lung metastases: concentration or dose not given beside the values; settings: liposomal formulations by aerosol; for Visible lung metastases/animal: 36 µg per animal per day, 19 or 21 days; for Inhibition (%) of visible lung metastases: versus control
Description: (§1) Metastastic lesions in the five lung lobes were counted visually at time of sacrifice. Fluorescent green micro-metastatic cancer cell colonies in the left lung lobe and lymph nodes were counted using a Nikon fluorescence microscope (TE-200) with a 20 x objective (200 x magnification) and Image-Pro Plus (version 4.1; Media Cybernetics, Silver Spring, MD) software associated with the microscope. Fluorescent lesions were separated into three size grouping: <5 µm , 5-10 µm and >10 µm.

CD31 = CD31 immunohistochemistry of tumor sections (tumor blood vessel numbers); assay type: in vivo, Balb/c mice; settings: for % Reduction of CD31 Blood Vessel Nos/Area: liposomal formulation by aerosol, versus control
66 cl.4-GFP tumors = assay: TUNEL assay for apoptosis in tumor sections in vivo; parameters: species or system Balb/c mice; settings: for % Enhanement of TUNEL Positive Apopotic Cells/Area: liposomal formulation by aerosol, versus control
Description: Deparaffinized sections (5 µm) of tumor tissue were used to assess apoptosis using reagents supplied in the ApopTag In Situ Apoptosis Detection kit (Intergen, Purchase, NY) according to the manufacturer's instructions. Nuclei that stained brown were scored as positive for apoptosis and those that stained blue were scored as negative. At least sixteen 400X microscopic fields were scored per tumor. Data are presented as the mean ± S. E number of apoptotic cells counted in three separate tumors from each group. Pictures of tumor tissue were taken at 1000X magnification.

[2] = test system: proliferation biomarker KI-67; assay: KI-67 immunohistochemistry of tumor sections (cell proliferation); assay type: in vivo, Balb/c mice; settings: for % Reduction of KI67: liposomal formulation by aerosol, versus control
[3] = after thirty minutes, cited from earlier work
66 cl.4-GFP cells [4] = assay: Fluorescent lung micrometastases of 66 cl.4-GFP tumors in Balb/c mice; assay type: in vivo
Description: as §1
(§2) At sacrifice, the left lung lobe of each mouse of flash frozen and saves for detection of GFP expressing micrometatstic lesions via fluorescent microscopy.

66 cl.4-GFP cells [5] = assay: Fluorescent lymph node micrometastases of 66 cl.4-GFP tumors in Balb/c mice; assay type: in vivo
Description: as §1, §2

66 cl.4-GFP cells [6] = assay: Tumor growth of 66 cl.4-GFP mammary tumor cells implanted in Balb/c mice; settings: for tumor growth, determined by tumor volume, versus controls: liposomal preparations delivered by aerosol, 36 µg per animal per day; for reduced tumor growth: liposome aerosol, 36 µg compound per day
Protocol: 66 cl.4-GFP cells were harvested by trypsinization, centrifuged, resuspended in McCoy's media, containing no supplements at a density of 2 X 10^5/100µl. Mice were injected in the inguinal area at a point equal distance between the 4th and 5th nipples on the right side using a 23 gauge needle.
50 mice were assigned (10 per group) to aerosol treatment, aerosol control, oral treatment, oral control, or to the no treatment group so that the average tumor volume for all groups were closely matched. […] Tumors were measured using calipers every other day, and volumes were calculated using the formula: volume (mm^3) = [width (mm)^2 X length (mm)] /2. Body weights were determined weekly.
Balb/c mice were injected with 200,000 66 cl.4 GFP cells subcutaneous in the mammary fat pad area between the 4th and 5th nipple on the right side of the body.
Mice are injected with 200,000 66cl.4 GFP murine mammary tumor cells as described on day 0. Treatments are initiated on day 9 when tumors reached 1-3 mm in size. […] Data represent the mean +/- Standard Error (SE), N = 10 mice for control and treatment groups.
Balb/c mice were injected s. c. with 2 X 10^5 66 cl.4-GFP cells in the inguinal area between the 4th and 5th nipple on the right side of the body. When tumors reached 2 x 2-4 x 4 mm (9 days after tumor injection), mice were placed into 5 groups ((Group 1: untreated control, Group 2: liposome/aerosol control, Group 3: liposomal α-TEA aerosol treatment, Group 4: peanut oil/gavage control, Group 5: α-TEA in peanut oil/gavage treatment) of 10 mice/group) such that the mean tumor volume of each group was closely matched. Daily treatments were initiated on day 9 after tumor injection.
Balb/c mice were injected with 200,000 66 cl.4 GFP cells subcutaneous in the mammary fat pad area between the 4th and 5th nipple on the right side of the body. […] Animals were treated with α-TEA in liposome, vitamin E succinate in liposome, or control liposome alone via aerosol, 7 days per week, for 21 days. Animals were given 75 mg compound via nebulization per day such that each animal received 36 µg compound per day.
The size of the tumors, 9 - 21 days after injection of 200,000 66 cl.4 GFP cells between the 4th and 5th nipple on the right side of each mouse, is determined. Treatments are initiated on day 9 after tumor inoculation. Each group consists of n=10 +/- SE. Gavage Treatment = Treatments of 5 mg of α-TEA in ethanol and peanut oil (0.1 ml volume) are administered daily starting on day 9 after tumor inoculation and continuing through day 21. Gavage Control = Mice received peanut oil and ethanol alone (0.ml volume)/daily, starting on day 9 after tumor inoculation and continuing through day 21. Data (tumor size) are depicted as the mean +/- standard error for days 9, 11, 13, 15, 17, 19, and 21.
Balb/c mice were injected with 200,000 66 cl.4 GFP cells subcutaneous in the mammary fat pad area between the 4th and 5th nipple on the right side of the body. […] Animals were treated with α-TEA in liposome, vitamin E succinate in liposome, or control liposome alone via oral gavage, 2 times per day, 7 days per week, for 21 days. Animals were given a total of 6 mg compound per day.

MDA-MB-435 GFP FL cells = assay: Tumor growth of MDA-MB-435 GFP FL breast cancer cells in nude mice; assay type: in vivo, Nu/Nu athymic nude mice; settings: day 35; α-TEA in liposome via aerosol; MSC 3ppm in water by gavage
Protocol: Animals were given a total of 8 mg compound per day. […] Alpha-TEA liposome gavage reduced tumor growth by 68, 75, 78, 79 and 79% on days 27, 29, 31, 33, and 35, respectively (Fig. 15).
Animals were gavaged 3ppm methylselenocysteine (MSC) in water, α-TEA in liposome via aerosol, or gavaged 10 mg/kg b.w. trans-resveratrol (t-RES) in first 1:1, EtOH: physiological saline, and starting at day 24, 6.5% EtOH and 93.5% Neobee oil. A combination group was treated with each of the above three compounds, and a control group was treated with aerosolized liposome, 100 µl water, and 50 µl of the t-Res solvent. Animals were treated seven days a week, for 35+ days.

66 cl.4-GFP cells [7] = assay: Apoptosis by morphological evaluation of DAPI-stained nuclei; assay type: cell-based, mouse; settings: three days
[8] = liposomal formulation delivered by aerosol, tumor sections
[9] = aerosol liposome delivery, 30 min
[10] = Aerosol, in nebulizer per mouse: α-TEA 5 mg/d, 9NC 2 µg/d, combination 5 mg+2µg/d

SMILES: CC(=O)Oc1c(C)c(C)c2c(c1C)CCC(C)(CCCC(C)CCCC(C)CCCC(C)C)O2 (racemic) [dl-α tocopherol acetate]
- Visible lung metastases/animal (66 cl.4-GFP cells [1]): 0.3
- Inhibition (%) of visible lung metastases (66 cl.4-GFP cells [1]): 82%

SMILES: Cc1c(C)c2c(c(C)c1O)CCC(C)(CCCC(C)CCCC(C)CCCC(C)C)O2 (racemic) [dl-α-tocopherol, dl-alpha-tocopherol]
- Visible lung metastases/animal (66 cl.4-GFP cells [1]): 0.1
- Inhibition (%) of visible lung metastases (66 cl.4-GFP cells [1]): 94** %
- % Reduction of CD31 Blood Vessel Nos/Area (CD31): 51%
- % Reduction of CD31 Blood Vessel Nos/Area (CD31; listed as dl-alpha-tocopherol): 51%
- CD31 Blood Vessel Nos/Area (CD31; [8]): 112
- % Enhanement of TUNEL Positive Apopotic Cells/Area (66 cl.4-GFP tumors): 44%
- % Enhanement of TUNEL Positive Apopotic Cells/Area (66 cl.4-GFP tumors; listed as dl-alpha-tocopherol): 44%
- TUNEL Positive Apopotic Cells/Area (66 cl.4-GFP tumors; [8]): 2.5
- % Reduction of KI67 [2]: 33%
- % Reduction of KI67 ([2]; listed as dl-alpha-tocopherol): 33%
- KI67 Inhibition of Proliferation (%) [2, 8]: 40%

SMILES: CC[C@@]1(O)C(=O)OCc2c1cc1n(c2=O)Cc2cc3c([N+](=O)[O-])cccc3nc2-1 [9-nitrocamptothecin]
- Levels of 9-nitrocamptothecin in the brain [3, 9]: 61 ng/g
- Levels of 9-nitrocamptothecin in the liver [3, 9]: 192 ng/g
- Levels of 9-nitrocamptothecin in the lungs [3, 9]: 310 ng/g
- Levels of 9-nitrocamptothecin in the liver ([3]; intramuscular delivery, 30 min): 136 ng/g
- Levels of 9-nitrocamptothecin in the lungs ([3]; intramuscular delivery, 30 min): 2 to 4 ng/g
- Levels of 9-nitrocamptothecin in the brain ([3]; intramuscular delivery): 0 ng/g
- Inhibition (%) Metastases Lung (66 cl.4-GFP cells [4]; [10]): 55%
- Inhibition (%) Metastases Lymphnode (66 cl.4-GFP cells [5]; [10]): 60%
- Inhibition (%) Tumor Growth (66 cl.4-GFP cells [6]; [10]): 58%

SMILES: C[Se]C[C@H](N)C(=O)O [MSC, methylselenocysteine, reference compound]
- tumor volume decrease from the control (MDA-MB-435 GFP FL cells): 47.2%

SMILES: Cc1cc(O)cc2c1O[C@](C)(CCC[C@H](C)CCC[C@H](C)CCCC(C)C)CC2 [RRR-delta tocopherol, RRR-delta-tocopherol]
- Visible lung metastases/animal (66 cl.4-GFP cells [1]): 0.3
- Inhibition (%) of visible lung metastases (66 cl.4-GFP cells [1]): 82%

SMILES: Cc1c(C)c2c(c(C)c1O)CC[C@@](C)(CCC[C@H](C)CCC[C@H](C)CCCC(C)C)O2 [RRR-α tocopherol, RRR-α-tocopherol]
- Visible lung metastases/animal (66 cl.4-GFP cells [1]): 1.7
- Inhibition (%) of visible lung metastases (66 cl.4-GFP cells [1]): 0%
- tumor growth, determined by tumor volume, versus controls (66 cl.4-GFP cells [6]): enhanced tumor growth

SMILES: CC(C)=CCC/C(C)=C/CC/C(C)=C/CC[C@]1(C)CCc2c(C)c(O)c(C)c(C)c2O1 [RRR-α-tocotrienol, RRR-alpha-tocotrienol]
- Visible lung metastases/animal (66 cl.4-GFP cells [1]): 0.4
- Inhibition (%) of visible lung metastases (66 cl.4-GFP cells [1]): 77%

SMILES: Cc1c(O)cc2c(c1C)O[C@](C)(CCC[C@H](C)CCC[C@H](C)CCCC(C)C)CC2 [RRR-γ tocopherol, RRR-γ-tocopherol]
- Visible lung metastases/animal (66 cl.4-GFP cells [1]): 1.15
- Inhibition (%) of visible lung metastases (66 cl.4-GFP cells [1]): 32%
- tumor growth, determined by tumor volume, versus controls (66 cl.4-GFP cells [6]): enhanced tumor growth

SMILES: Cc1c(C)c2c(c(C)c1OC(=O)CCC(=O)O)CC[C@@](C)(CCC[C@H](C)CCC[C@H](C)CCCC(C)C)O2 [vitamin E succinate, RRR-α-tocopheryl succinate, reference compound]
- effect on lung metastasis (66 cl.4-GFP cells [4]; liposomal formulation via gavage, 6 mg compound per day, 21 days): no effect on lung metastasis
- effect on lymph node micrometastatic lesions (Fig. 14B) (66 cl.4-GFP cells [5]; liposome via gavage, 6 mg compound per day, 21 days): not effective in decreasing micrometastatic lung lesions
- reduced tumor growth (66 cl.4-GFP cells [6]; 21 days, day 15): 76%
- reduced tumor growth (66 cl.4-GFP cells [6]; 21 days, day 17): 76%
- reduced tumor growth (66 cl.4-GFP cells [6]; 21 days, day 19): 69%
- reduced tumor growth (66 cl.4-GFP cells [6]; 21 days, day 21): 68%
- tumor growth versus control liposome (66 cl.4-GFP cells [6]; liposome gavage, 6 mg compound per day, 21 days): did not reduce tumor growth
- apoptosis (66 cl.4-GFP cells [7]; 2.5 µg/ml): 3%
- apoptosis (66 cl.4-GFP cells [7]; 5 µg/ml): 5%
- apoptosis (66 cl.4-GFP cells [7]; 10 µg/ml): 16%
- apoptosis (66 cl.4-GFP cells [7]; 20 µg/ml): 34%
